From ChEMBL document CHEMBL5291721, “A preclinical secondary pharmacology resource illuminates target-adverse drug reaction associations of marketed drugs” (Nat Commun, 2023)

What was measured:
[1] = target: Beta-3 adrenergic receptor (Homo sapiens, UniProt P13945)
[2] = target: Voltage-dependent N-type calcium channel subunit alpha-1B (Rattus norvegicus, UniProt Q02294); assay type: functional
Cannabinoid receptor 1 = Cannabinoid receptor 1 (Homo sapiens, UniProt P21554); assay type: functional
[3] = target: T1, Corticotropin-releasing factor receptor 2 (Homo sapiens, UniProt Q13324)
T1 sequence (Q13324 whole entry): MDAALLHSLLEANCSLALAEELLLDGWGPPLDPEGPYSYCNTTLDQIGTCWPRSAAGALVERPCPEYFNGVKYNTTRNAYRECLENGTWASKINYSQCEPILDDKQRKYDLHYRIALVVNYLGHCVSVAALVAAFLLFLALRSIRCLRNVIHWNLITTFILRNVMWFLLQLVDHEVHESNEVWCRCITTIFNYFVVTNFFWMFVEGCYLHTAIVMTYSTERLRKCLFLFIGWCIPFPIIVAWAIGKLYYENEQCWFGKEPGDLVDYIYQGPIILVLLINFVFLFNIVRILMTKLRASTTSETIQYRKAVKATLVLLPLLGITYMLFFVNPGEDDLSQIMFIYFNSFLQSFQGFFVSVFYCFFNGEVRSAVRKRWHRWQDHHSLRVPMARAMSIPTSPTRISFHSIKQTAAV

[4] = target: Gamma-aminobutyric acid type B receptor subunit 1 (Homo sapiens, UniProt Q9UBS5)
Glucagon receptor = Glucagon receptor (Homo sapiens, UniProt P47871)
[5] = target: T2, Gastric inhibitory polypeptide receptor (Homo sapiens, UniProt P48546)
T2 sequence (P48546 whole entry): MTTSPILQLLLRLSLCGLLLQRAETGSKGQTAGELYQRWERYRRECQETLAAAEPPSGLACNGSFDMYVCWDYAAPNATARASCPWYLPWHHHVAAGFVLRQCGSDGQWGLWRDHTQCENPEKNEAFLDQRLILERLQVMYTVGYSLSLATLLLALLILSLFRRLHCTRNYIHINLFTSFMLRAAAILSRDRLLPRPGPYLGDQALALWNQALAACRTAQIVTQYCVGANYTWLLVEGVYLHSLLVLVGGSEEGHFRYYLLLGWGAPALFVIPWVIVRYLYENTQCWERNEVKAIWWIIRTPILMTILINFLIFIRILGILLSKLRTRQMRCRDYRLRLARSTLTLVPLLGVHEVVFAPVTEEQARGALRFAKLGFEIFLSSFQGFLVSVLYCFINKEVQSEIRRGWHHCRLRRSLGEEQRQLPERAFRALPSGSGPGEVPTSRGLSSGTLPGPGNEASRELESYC

[6] = target: 5-hydroxytryptamine receptor 7 (Homo sapiens, UniProt P34969)
[7] = target: T3, Alpha-1A adrenergic receptor (Homo sapiens, UniProt P35348)
T3 sequence (P35348 whole entry): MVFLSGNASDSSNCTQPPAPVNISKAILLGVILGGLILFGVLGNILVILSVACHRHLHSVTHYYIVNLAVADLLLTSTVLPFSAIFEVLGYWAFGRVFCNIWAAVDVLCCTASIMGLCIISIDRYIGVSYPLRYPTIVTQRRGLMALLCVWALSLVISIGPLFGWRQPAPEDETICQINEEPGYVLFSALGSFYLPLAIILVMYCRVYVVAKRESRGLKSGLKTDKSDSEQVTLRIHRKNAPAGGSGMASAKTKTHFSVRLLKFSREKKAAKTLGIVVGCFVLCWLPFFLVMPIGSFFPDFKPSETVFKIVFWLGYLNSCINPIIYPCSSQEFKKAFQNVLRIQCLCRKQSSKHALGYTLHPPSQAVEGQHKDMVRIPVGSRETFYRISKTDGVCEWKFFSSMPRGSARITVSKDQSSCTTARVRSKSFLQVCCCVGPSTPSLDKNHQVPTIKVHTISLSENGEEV

D(1A) dopamine receptor = D(1A) dopamine receptor (Homo sapiens, UniProt P21728); assay type: functional, cell-based
D(1A) dopamine receptor, sequence (P21728 whole entry): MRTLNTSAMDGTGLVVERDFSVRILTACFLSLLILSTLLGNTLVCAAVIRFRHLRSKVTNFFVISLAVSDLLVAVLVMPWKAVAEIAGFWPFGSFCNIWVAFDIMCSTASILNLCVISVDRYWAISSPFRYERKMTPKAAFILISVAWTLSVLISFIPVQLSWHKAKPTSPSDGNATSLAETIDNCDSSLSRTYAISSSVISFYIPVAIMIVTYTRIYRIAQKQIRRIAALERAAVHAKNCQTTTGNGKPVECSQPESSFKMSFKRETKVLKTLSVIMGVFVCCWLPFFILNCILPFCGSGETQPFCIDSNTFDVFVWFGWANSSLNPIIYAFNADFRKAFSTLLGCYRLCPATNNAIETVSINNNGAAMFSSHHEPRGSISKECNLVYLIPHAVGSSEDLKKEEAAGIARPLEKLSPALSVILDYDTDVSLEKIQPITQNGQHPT

[8] = target: T4, Gamma-aminobutyric acid receptor subunit alpha-1/alpha-2/beta-2/gamma-2 (Homo sapiens, UniProt P14867+P18507+P47869+P47870); assay type: functional, cell-based
T4 sequence (P14867 whole entry): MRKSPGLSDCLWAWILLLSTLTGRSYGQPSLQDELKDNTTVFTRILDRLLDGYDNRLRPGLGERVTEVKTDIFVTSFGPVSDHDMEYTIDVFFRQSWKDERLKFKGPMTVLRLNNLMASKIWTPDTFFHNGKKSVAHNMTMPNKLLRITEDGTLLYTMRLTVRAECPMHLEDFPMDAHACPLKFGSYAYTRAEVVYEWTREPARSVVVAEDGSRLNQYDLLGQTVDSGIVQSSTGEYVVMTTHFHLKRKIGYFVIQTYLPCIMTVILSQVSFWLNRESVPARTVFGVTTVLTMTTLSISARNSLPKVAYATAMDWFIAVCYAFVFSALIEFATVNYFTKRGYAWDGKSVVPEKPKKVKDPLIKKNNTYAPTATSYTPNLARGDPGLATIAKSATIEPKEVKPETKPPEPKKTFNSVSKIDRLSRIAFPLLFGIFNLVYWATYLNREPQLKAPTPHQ
T4 sequence (P47870 whole entry): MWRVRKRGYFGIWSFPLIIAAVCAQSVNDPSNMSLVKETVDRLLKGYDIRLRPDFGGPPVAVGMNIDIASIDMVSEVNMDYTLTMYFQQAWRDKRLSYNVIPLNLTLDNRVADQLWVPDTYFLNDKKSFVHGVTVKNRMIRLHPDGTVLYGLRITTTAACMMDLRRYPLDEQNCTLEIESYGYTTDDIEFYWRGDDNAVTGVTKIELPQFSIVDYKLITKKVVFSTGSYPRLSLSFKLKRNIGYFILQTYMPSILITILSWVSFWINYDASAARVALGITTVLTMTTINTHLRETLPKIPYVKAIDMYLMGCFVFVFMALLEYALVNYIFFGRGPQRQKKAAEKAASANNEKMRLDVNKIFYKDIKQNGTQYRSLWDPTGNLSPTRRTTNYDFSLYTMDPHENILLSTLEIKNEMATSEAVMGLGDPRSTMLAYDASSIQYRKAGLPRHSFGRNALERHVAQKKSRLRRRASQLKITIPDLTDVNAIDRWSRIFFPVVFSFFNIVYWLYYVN
T4 sequence (P18507 whole entry): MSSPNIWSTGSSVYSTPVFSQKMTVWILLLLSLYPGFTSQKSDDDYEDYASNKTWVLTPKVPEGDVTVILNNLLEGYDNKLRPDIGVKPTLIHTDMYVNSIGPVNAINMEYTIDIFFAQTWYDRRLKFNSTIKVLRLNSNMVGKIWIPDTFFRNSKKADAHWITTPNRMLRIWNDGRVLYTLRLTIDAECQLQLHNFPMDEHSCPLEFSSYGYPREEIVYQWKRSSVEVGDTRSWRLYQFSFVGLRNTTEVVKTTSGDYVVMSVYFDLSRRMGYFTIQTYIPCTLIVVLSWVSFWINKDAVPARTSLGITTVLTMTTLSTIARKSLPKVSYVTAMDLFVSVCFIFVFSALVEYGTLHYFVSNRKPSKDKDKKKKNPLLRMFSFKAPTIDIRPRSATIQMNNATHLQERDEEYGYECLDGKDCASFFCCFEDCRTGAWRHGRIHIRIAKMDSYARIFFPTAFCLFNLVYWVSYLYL
T4 sequence (P47869 whole entry): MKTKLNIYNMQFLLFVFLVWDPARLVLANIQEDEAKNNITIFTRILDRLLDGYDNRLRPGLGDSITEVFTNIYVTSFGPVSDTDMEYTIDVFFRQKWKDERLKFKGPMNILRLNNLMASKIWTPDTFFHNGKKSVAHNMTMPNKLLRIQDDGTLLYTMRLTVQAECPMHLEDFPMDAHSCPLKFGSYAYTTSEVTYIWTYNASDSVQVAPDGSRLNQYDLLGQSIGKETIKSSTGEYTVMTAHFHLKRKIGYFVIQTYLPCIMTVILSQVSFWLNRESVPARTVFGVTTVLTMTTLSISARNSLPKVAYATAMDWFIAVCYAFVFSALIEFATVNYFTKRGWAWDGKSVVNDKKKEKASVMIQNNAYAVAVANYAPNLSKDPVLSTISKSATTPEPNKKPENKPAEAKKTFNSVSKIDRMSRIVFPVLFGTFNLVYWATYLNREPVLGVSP

[9] = target: T4, Gamma-aminobutyric acid receptor subunit alpha-1/alpha-2/beta-2/gamma-2; assay type: functional, cell-based; remark: listed apart in the source
[10] = target: Voltage-dependent L-type calcium channel subunit alpha-1C (Homo sapiens, UniProt Q13936); assay type: functional, cell-based
Voltage-dependent L-type calcium channel subunit alpha-1C, sequence (Q13936 whole entry): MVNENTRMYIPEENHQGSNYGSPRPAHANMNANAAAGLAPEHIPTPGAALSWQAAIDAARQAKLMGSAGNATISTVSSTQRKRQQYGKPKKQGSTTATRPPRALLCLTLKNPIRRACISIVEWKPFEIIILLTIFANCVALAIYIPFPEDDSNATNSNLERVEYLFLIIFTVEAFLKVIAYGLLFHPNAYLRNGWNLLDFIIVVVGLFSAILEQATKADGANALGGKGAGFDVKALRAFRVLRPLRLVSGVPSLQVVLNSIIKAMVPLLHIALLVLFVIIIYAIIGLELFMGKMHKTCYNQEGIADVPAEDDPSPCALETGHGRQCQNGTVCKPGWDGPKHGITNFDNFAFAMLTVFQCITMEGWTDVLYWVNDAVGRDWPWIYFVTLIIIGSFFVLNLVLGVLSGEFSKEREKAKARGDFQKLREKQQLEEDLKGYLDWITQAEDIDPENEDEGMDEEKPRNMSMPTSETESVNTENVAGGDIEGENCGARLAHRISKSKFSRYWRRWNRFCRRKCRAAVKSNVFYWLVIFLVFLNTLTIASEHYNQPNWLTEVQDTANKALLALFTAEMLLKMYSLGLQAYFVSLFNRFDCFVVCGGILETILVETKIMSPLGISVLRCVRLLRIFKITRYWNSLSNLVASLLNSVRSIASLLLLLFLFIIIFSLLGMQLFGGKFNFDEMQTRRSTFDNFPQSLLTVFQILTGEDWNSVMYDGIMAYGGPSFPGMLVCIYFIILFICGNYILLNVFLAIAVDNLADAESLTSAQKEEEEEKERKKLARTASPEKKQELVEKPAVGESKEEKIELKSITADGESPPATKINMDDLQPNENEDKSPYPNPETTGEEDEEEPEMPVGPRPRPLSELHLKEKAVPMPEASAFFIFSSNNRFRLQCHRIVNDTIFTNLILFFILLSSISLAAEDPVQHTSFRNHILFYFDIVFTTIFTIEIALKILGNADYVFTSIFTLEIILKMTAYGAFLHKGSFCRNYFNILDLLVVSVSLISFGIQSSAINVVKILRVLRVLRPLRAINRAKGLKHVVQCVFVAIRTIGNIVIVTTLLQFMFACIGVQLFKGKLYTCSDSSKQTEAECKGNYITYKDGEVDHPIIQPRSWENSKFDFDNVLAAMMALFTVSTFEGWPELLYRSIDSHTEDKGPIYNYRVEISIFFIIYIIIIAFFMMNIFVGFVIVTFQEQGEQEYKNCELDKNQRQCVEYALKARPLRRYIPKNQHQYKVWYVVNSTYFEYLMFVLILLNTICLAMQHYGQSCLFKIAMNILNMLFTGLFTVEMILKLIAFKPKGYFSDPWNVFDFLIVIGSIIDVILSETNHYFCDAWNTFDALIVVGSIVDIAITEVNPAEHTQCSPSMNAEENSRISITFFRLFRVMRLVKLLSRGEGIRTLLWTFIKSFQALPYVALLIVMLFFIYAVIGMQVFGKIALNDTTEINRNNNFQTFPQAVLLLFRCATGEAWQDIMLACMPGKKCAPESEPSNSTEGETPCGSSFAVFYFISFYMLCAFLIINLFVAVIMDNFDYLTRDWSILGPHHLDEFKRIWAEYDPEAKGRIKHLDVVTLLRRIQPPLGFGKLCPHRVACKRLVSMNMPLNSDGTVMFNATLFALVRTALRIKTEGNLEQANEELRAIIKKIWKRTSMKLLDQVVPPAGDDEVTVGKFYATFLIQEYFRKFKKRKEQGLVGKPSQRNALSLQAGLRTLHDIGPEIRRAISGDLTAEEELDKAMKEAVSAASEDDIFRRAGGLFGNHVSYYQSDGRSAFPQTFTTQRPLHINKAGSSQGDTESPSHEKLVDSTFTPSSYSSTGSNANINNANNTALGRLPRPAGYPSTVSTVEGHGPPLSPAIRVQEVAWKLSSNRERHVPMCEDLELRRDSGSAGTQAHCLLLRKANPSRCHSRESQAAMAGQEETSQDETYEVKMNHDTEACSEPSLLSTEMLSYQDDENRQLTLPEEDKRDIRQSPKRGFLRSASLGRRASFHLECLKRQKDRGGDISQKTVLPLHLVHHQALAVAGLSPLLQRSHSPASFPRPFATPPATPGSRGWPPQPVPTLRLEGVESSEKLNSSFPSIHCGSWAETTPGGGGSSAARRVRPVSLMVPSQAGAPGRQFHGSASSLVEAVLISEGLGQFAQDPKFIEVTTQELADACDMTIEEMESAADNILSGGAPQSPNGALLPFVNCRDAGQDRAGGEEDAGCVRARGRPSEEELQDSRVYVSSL

[11] = target: T5, Peroxisome proliferator-activated receptor gamma (Homo sapiens, UniProt P37231); assay type: functional
T5 sequence (P37231 whole entry): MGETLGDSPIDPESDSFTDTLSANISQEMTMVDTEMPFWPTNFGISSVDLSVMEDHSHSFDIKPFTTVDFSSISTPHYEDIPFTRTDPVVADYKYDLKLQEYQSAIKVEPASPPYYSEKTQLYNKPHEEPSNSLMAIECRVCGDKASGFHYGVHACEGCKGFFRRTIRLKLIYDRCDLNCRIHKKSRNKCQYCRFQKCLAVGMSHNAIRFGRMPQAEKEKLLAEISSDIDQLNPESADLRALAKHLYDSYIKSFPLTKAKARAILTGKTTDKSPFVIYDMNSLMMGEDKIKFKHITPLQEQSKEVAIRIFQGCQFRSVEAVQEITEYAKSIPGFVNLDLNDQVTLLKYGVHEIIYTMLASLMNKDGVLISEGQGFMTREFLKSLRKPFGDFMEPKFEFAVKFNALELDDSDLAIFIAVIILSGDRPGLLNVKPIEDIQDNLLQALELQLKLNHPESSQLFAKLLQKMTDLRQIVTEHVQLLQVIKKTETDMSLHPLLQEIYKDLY

[12] = target: T5, Peroxisome proliferator-activated receptor gamma; assay type: functional; remark: listed apart in the source
Estrogen receptor beta = Estrogen receptor beta (Homo sapiens, UniProt Q92731)
Also: assay procedure not described here.

Beta-3 adrenergic receptor, sequence (P13945 whole entry): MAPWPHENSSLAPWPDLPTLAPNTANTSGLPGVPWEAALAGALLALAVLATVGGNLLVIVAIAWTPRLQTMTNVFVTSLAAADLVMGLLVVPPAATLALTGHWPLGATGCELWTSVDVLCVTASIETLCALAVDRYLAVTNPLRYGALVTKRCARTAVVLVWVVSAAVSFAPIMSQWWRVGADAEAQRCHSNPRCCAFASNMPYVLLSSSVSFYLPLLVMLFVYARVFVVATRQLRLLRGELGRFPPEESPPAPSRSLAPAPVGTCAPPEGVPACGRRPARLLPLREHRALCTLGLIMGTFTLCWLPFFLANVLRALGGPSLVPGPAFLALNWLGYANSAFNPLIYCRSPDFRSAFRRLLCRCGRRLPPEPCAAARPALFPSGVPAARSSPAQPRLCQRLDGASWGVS

SMILES	AC50 [1] [µM]	AC50 [2] [µM]	AC50 [3] [µM]	AC50 (Glucagon receptor) [µM]	AC50 [5] [µM]	AC50 [7] [µM]	AC50 [8] [µM]	AC50 [9] [µM]	further results
COc1ccc2c3c1O[C@H]1[C@@H](O)C=C[C@H]4[C@@H](C2)N(C)CC[C@@]341 [CODEINE]	> 30	> 10	> 30	> 30	> 30	> 10			AC50 (Cannabinoid receptor 1): > 10 µM; AC50 [4]: > 10 µM; AC50 [6]: > 10 µM
C=CCN1CCCC1CNC(=O)c1cc(S(N)(=O)=O)cc(OC)c1OC (centres undefined) [VERALIPRIDE]									AC50 (D(1A) dopamine receptor): > 30 µM
N#Cc1ccc([C@H]2CCc3cncn32)c(F)c1 [OSILODROSTAT]		> 10				> 10			AC50 (Cannabinoid receptor 1): > 10 µM; AC50 [4]: > 10 µM; AC50 [6]: > 10 µM
CN1CCC(=C2c3ccccc3CCc3sccc32)CC1 [PIZOTYLINE]							> 30	> 30	AC50 (D(1A) dopamine receptor): 0.65 µM
COC(=O)C1=C(C)NC(C)=C(C(=O)OC(C)(C)CN(C)CCC(c2ccccc2)c2ccccc2)C1c1cccc([N+](=O)[O-])c1 (centres undefined) [LERCANIDIPINE]									AC50 [10]: > 50 µM
COC(=O)C1=C(C)NC(C)=C(C(=O)OC2CCCN(Cc3ccccc3)C2)C1c1cccc([N+](=O)[O-])c1 (centres undefined) [BENIDIPINE]									AC50 [10]: 1.9 µM
CC(=O)O[C@H]1CC[C@@]2(C)C(=CC[C@@H]3[C@@H]2CC[C@]2(C)C(c4cccnc4)=CC[C@@H]32)C1 [ABIRATERONE ACETATE]									AC50 [10]: > 30 µM; AC50 [11]: > 30 µM; AC50 [12]: > 30 µM
Clc1ccc(CCCOCCCN2CCCCC2)cc1 [PITOLISANT]									AC50 [10]: 10.4 µM
CC[C@@H]1C(=O)OC[C@@H]1Cc1cncn1C [PILOCARPINE]		> 10							
CC(C)OC(=O)CCC/C=C\C[C@@H]1[C@@H](CC[C@@H](O)CCc2ccccc2)[C@H](O)C[C@@H]1O [LATANOPROST]							> 30	> 30	AC50 [11]: > 30 µM; AC50 [12]: > 30 µM
CN1CCN(CC/C=C2/c3ccccc3Sc3ccc(S(=O)(=O)N(C)C)cc32)CC1 [THIOTHIXENE]	> 30	> 10	> 30	> 30	> 30	0.0624			AC50 (Cannabinoid receptor 1): > 10 µM; AC50 (D(1A) dopamine receptor): 0.98 µM; AC50 (Estrogen receptor beta): > 30 µM; AC50 [4]: > 10 µM; AC50 [6]: 0.254 µM
CCc1c(Cl)c(O)c(Cl)c(O)c1C(=O)O[C@H]1[C@H](O)[C@H](OC)[C@H](OC/C2=C\C=C\C[C@H](O)/C(C)=C/[C@H](CC)[C@@H](O[C@@H]3OC(C)(C)[C@@H](OC(=O)C(C)C)[C@H](O)[C@@H]3O)/C(C)=C/C(C)=C/C[C@@H]([C@@H](C)O)OC2=O)O[C@@H]1C [FIDAXOMICIN]	> 30	> 10	> 30	> 30	> 30	> 10			AC50 (Estrogen receptor beta): > 30 µM
CCCCc1ncc(/C=C(\Cc2cccs2)C(=O)O)n1Cc1ccc(C(=O)O)cc1 [EPROSARTAN]	> 30	> 10	> 30	> 30	> 30	> 10			AC50 (Cannabinoid receptor 1): > 10 µM; AC50 [4]: > 10 µM; AC50 [6]: > 10 µM
CCCc1nc(C(C)(C)O)c(C(=O)OCc2oc(=O)oc2C)n1Cc1ccc(-c2ccccc2-c2nnn[nH]2)cc1 [OLMESARTAN MEDOXOMIL]	> 30	> 10	> 30	> 50	> 30	> 10			AC50 (Cannabinoid receptor 1): > 10 µM; AC50 (Estrogen receptor beta): > 30 µM; AC50 [6]: > 10 µM
C/C(O)=C(\C#N)C(=O)Nc1ccc(C(F)(F)F)cc1 [TERIFLUNOMIDE]							> 30	> 30	AC50 [11]: > 30 µM; AC50 [12]: 25 µM
NCC(=O)CCC(=O)O [AMINOLEVULINIC ACID]							> 30	> 30	
CC(CC(c1ccccc1)c1ccccc1)NC(C)(C)C (centres undefined) [TERODILINE]									AC50 [10]: > 50 µM
CO/N=C(\C(=O)N[C@@H]1C(=O)N2C(C(=O)O)=C(CSc3nnnn3C)CS[C@H]12)c1csc(N)n1 [CEFMENOXIME]									AC50 [11]: > 30 µM; AC50 [12]: > 30 µM
CCCN(CCC)C(=O)C(CCC(=O)O)NC(=O)c1ccccc1 (centres undefined) [PROGLUMIDE]	> 30	> 10	> 30	> 30	> 30				
CC(C)(C)c1cc(C(C)(C)C)c(NC(=O)c2c[nH]c3ccccc3c2=O)cc1O [IVACAFTOR]	4.4	> 10							
O=C(NCCNCC(O)COc1ccc(O)cc1)N1CCOCC1 (centres undefined) [XAMOTEROL]							> 30	> 30	
CCC1(CC)C(=O)NCC(C)C1=O (centres undefined) [METHYPRYLON]							> 30	> 30	AC50 [11]: > 30 µM; AC50 [12]: > 30 µM
CCN1CCN(C(=O)N[C@@H](C(=O)N[C@@H]2C(=O)N3C(C(=O)O)=C(CSc4nnnn4C)CS[C@H]23)c2ccc(O)cc2)C(=O)C1=O [CEFOPERAZONE]							> 30	> 30	AC50 [11]: > 30 µM; AC50 [12]: > 30 µM
CNS(=O)(=O)Cc1ccc2[nH]cc(CCN(C)C)c2c1	> 30	> 10	> 30	> 30	> 30	> 10	> 30	> 30	AC50 (Cannabinoid receptor 1): > 10 µM; AC50 (Estrogen receptor beta): > 30 µM; AC50 [4]: > 10 µM; AC50 [6]: 4.67 µM
CN1C(=O)C(O)N=C(c2ccccc2)c2cc(Cl)ccc21 (centres undefined) [TEMAZEPAM]	> 30	> 10	> 30	> 30	> 30	> 10			AC50 (Estrogen receptor beta): > 30 µM
CCN(CC)C(=O)N[C@H]1C[C@@H]2c3cccc4[nH]cc(c34)C[C@H]2N(C)C1 [TERGURIDE]							> 30	> 30	AC50 [11]: > 30 µM; AC50 [12]: > 30 µM
